Patent publication US9890124B2, “Benzazepine sulfonamide compounds” (Hoffmann-La Roche Inc., priority 2015, dated 2018)

Experiments:
human TLR8 = human TLR8 (Homo sapiens (Human), UniProt Q9NR97); assay: HEK-Blue human TLR8 cells NF-κB SEAP reporter assay; format: cell-based; conditions: stimulation for 20 hours
Description: (§1) For TLR8 and TLR7 activity testing, HEK-Blue human TLR8 or TLR7 cells (Invivogen, San Diego, Calif., USA) are used, respectively. These cells are designed for studying the stimulation of human TLR8 or TLR7 by monitoring the activation of NF-κB. A SEAP (secreted embryonic alkaline phosphatase) reporter gene is placed under the control of the IFN-b minimal promoter fused to five NF-κB and AP-1-binding sites. Therefore the reporter expression is regulated by the NF-κB promoter upon stimulation of human TLR8 or TLR7 for 20 hours. The cell culture supernatant SEAP reporter activity was determined using Quanti Blue kit (Invivogen, San Diego, Calif., USA) at a wavelength of 640 nm, a detection medium that turns purple/blue in the presence of alkaline phosphatase. EC50 values were determined using Activity Base analysis (ID Business Solution, Limited).

human TLR7 = human TLR7 (Homo sapiens (Human), UniProt Q9NYK1); assay: HEK-Blue human TLR7 cells NF-κB SEAP reporter assay; format: cell-based; conditions: stimulation for 20 hours
Sequence of human TLR7 (Q9NYK1 27-1049): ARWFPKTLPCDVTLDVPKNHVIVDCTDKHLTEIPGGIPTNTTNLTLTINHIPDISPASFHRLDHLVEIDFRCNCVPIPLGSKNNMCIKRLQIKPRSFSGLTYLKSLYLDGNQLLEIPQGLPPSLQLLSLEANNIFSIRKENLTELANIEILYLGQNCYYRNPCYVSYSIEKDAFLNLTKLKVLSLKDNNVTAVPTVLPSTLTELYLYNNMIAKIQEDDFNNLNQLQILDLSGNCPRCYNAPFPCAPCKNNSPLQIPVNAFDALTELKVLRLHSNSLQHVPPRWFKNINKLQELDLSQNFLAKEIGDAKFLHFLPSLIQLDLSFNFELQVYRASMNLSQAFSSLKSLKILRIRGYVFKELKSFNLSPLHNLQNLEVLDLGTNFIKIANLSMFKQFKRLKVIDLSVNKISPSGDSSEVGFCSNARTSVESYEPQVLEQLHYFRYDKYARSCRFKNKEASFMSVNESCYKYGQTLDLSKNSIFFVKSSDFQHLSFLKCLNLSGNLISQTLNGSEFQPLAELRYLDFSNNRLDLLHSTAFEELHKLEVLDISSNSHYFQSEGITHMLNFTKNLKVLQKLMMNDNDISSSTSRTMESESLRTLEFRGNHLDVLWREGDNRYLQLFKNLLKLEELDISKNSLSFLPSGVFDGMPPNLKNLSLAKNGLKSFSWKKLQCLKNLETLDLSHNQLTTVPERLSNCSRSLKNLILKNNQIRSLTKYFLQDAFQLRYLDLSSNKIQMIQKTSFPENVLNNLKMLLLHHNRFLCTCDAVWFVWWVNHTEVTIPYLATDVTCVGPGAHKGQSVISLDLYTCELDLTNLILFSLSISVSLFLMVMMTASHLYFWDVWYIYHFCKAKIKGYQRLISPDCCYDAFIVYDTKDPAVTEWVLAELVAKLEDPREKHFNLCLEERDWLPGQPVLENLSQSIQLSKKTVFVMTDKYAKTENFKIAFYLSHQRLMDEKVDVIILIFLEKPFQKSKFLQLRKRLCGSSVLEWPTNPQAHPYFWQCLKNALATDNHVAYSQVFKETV
Description: as §1

Sequence of human TLR8 (Q9NR97 27-1041): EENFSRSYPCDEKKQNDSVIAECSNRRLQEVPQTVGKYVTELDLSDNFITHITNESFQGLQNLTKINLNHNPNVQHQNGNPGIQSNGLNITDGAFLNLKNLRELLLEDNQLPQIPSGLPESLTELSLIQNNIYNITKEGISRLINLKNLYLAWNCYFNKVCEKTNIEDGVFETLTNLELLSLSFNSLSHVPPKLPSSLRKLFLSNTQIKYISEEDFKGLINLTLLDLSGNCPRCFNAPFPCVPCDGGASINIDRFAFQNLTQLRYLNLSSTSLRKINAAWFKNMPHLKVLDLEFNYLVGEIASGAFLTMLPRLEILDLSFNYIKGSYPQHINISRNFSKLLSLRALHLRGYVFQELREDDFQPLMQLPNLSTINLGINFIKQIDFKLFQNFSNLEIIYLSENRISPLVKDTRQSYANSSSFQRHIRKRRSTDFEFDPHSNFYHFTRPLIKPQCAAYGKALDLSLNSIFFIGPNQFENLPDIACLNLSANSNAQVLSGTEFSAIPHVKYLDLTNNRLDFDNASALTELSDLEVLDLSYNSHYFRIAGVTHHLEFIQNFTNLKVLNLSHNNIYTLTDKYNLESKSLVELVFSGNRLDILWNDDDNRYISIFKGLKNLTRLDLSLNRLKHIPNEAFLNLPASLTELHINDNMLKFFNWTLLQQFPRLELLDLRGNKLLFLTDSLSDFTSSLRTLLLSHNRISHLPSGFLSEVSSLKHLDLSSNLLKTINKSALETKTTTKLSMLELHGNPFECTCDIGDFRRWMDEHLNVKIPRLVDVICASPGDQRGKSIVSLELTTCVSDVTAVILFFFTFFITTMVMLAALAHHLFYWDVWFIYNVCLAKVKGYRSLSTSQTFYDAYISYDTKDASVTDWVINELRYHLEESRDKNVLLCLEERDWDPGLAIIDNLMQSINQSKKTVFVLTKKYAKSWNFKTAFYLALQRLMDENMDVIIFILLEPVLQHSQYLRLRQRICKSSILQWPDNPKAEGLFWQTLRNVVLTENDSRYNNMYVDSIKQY

SMILES | EC50 (human TLR8) [µM] | EC50 (human TLR7) [µM]
CCCN(CCC)C(=O)C1=Cc2ccc(-c3cccc(S(N)(=O)=O)c3)cc2N=C(N)C1 [Example 1, 2-Amino-N,N-dipropyl-8-(3-sulfamoylphenyl)-3H-1-benzazepine-4-carboxamide] | 0.006 | 3
CCCN(CCC)C(=O)C1=Cc2ccc(-c3cccc(S(=O)(=O)NCCO)c3)cc2N=C(N)C1 [Example 2, 2-Amino-8-[3-(2-hydroxyethylsulfamoyl)phenyl]-N,N-dipropyl-3H-1-benzazepine-4-carboxamide] | 0.006 | 7
CCCN(CCC)C(=O)C1=Cc2ccc(-c3cccc(S(=O)(=O)N4CCCC4)c3)cc2N=C(N)C1 [Example 3, 2-amino-N,N-dipropyl-8-(3-pyrrolidin-1-ylsulfonylphenyl)-3H-1-benzazepine-4-carboxamide] | 0.006 | > 100
CCCN(CCC)C(=O)C1=Cc2ccc(-c3cncc(S(N)(=O)=O)c3)cc2N=C(N)C1 [Example 4, 2-Amino-N,N-dipropyl-8-(5-sulfamoyl-3-pyridyl)-3H-1-benzazepine-4-carboxamide] | 0.023 | 5
CCCN(CCC)C(=O)C1=Cc2ccc(-c3cccc(S(=O)(=O)N4CCC(O)C4)c3)cc2N=C(N)C1 (stereo not shown) [Example 5, 2-Amino-8-[3-(3-hydroxypyrrolidin-1-yl)sulfonylphenyl]-N,N-dipropyl-3H-1-benzazepine-4-carboxamide] | 0.003 | 103
CCCN(CCC)C(=O)C1=Cc2ccc(-c3ccc(S(=O)(=O)N4CCC(O)C4)cc3)cc2N=C(N)C1 (stereo not shown) [Example 6, 2-Amino-8-[4-(3-hydroxypyrrolidin-1-yl)sulfonylphenyl]-N,N-dipropyl-3H-1-benzazepine-4-carboxamide] | 0.01 | 104
CCCN(CCC)C(=O)C1=Cc2ccc(-c3cccc(S(=O)(=O)N4CC[C@@H](O)C4)c3)cc2N=C(N)C1 [Example 7, 2-Amino-8-[3-[(3R)-3-hydroxypyrrolidin-1-yl]sulfonylphenyl]-N,N-dipropyl-3H-1-benzazepine-4-carboxamide] | 0.005 | 18
CCCN(CCC)C(=O)C1=Cc2ccc(-c3cccc(S(=O)(=O)N4CC[C@H](O)C4)c3)cc2N=C(N)C1 [Example 8, 2-Amino-8-[3-[(3S)-3-hydroxypyrrolidin-1-yl]sulfonylphenyl]-N,N-dipropyl-3H-1-benzazepine-4-carboxamide] | 0.005 | 24
CCCN(CCC)C(=O)C1=Cc2ccc(-c3cccc(S(=O)(=O)N4CC(O)C4)c3)cc2N=C(N)C1 [Example 9, 2-Amino-8-[3-(3-hydroxyazetidin-1-yl)sulfonylphenyl]-N,N-dipropyl-3H-1-benzazepine-4-carboxamide] | 0.005 | 17
CCCN(CCC)C(=O)C1=Cc2ccc(-c3cccc(S(=O)(=O)N(C)CCO)c3)cc2N=C(N)C1 [Example 10, 2-Amino-8-[3-[2-hydroxyethyl(methyl)sulfamoyl]phenyl]-N,N-dipropyl-3H-1-benzazepine-4-carboxamide] | 0.004 | 20
CCCN(CCC)C(=O)C1=Cc2ccc(-c3cccc(S(=O)(=O)NCCOCCO)c3)cc2N=C(N)C1 [Example 11, 2-Amino-8-[3-[2-(2-hydroxyethoxy)ethylsulfamoyl]phenyl]-N,N-dipropyl-3H-1-benzazepine-4-carboxamide] | 0.008 | 12
CCCN(CCC)C(=O)C1=Cc2ccc(-c3cccc(S(=O)(=O)NCCCCCCO)c3)cc2N=C(N)C1 [Example 12, 2-Amino-8-[3-(6-hydroxyhexylsulfamoyl)phenyl]-N,N-dipropyl-3H-1-benzazepine-4-carboxamide] | 0.008 | 12
CCCN(CCC)C(=O)C1=Cc2ccc(-c3cccc(S(=O)(=O)N4CCC(O)CC4)c3)cc2N=C(N)C1 [Example 13, 2-Amino-8-[3-[(4-hydroxy-1-piperidyl)sulfonyl]phenyl]-N,N-dipropyl-3H-1-benzazepine-4-carboxamide] | 0.004 | 17
CCCN(CCC)C(=O)C1=Cc2ccc(-c3cc(C(F)(F)F)cc(S(=O)(=O)N4CC[C@@H](O)C4)c3)cc2N=C(N)C1 [Example 14, 2-Amino-8-[3-[(3R)-3-hydroxypyrrolidin-1-yl]sulfonyl-5-(trifluoromethyl)phenyl]-N,N-dipropyl-3H-1-benzazepine-4-carboxamide] | 0.009 | > 100
CCCN(CCC)C(=O)C1=Cc2ccc(-c3ccc(OC)c(S(=O)(=O)N4CC[C@@H](O)C4)c3)cc2N=C(N)C1 [Example 15, 2-Amino-8-[3-[(3R)-3-hydroxypyrrolidin-1-yl]sulfonyl-4-methoxy-phenyl]-N,N-dipropyl-3H-1-benzazepine-4-carboxamide] | 0.004 | 17
CCCN(CCC)C(=O)C1=Cc2ccc(-c3cccc(S(=O)(=O)N4CC(CO)C4)c3)cc2N=C(N)C1 [Example 16, 2-Amino-8-[3-[3-(hydroxymethyl)azetidin-1-yl]sulfonylphenyl]-N,N-dipropyl-3H-1-benzazepine-4-carboxamide] | 0.002 | 26
CCCN(CCC)C(=O)C1=Cc2ccc(-c3cccc(S(=O)(=O)N4CCC[C@@H](O)C4)c3)cc2N=C(N)C1 [Example 17, 2-Amino-8-[3-[[(3R)-3-hydroxy-1-piperidyl]sulfonyl]phenyl]-N,N-dipropyl-3H-1-benzazepine-4-carboxamide] | 0.005 | > 100
CCCN(CCC)C(=O)C1=Cc2ccc(-c3cccc(S(=O)(=O)N4CCC[C@H](O)C4)c3)cc2N=C(N)C1 [Example 18, 2-Amino-8-[3-[[(3S)-3-hydroxy-1-piperidyl]sulfonyl]phenyl]-N,N-dipropyl-3H-1-benzazepine-4-carboxamide] | 0.006 | > 100
CCCN(CCC)C(=O)C1=Cc2ccc(-c3cccc(S(=O)(=O)N4CC[C@@H](O)C4)c3C)cc2N=C(N)C1 [Example 19, 2-Amino-8-[3-[(3R)-3-hydroxypyrrolidin-1-yl]sulfonyl-2-methyl-phenyl]-N,N-dipropyl-3H-1-benzazepine-4-carboxamide] | 0.009 | 14
CCCN(CCC)C(=O)C1=Cc2ccc(-c3cncc(S(=O)(=O)N4CCNCC4)c3)cc2N=C(N)C1 [Example 20, 2-Amino-8-(5-piperazin-1-ylsulfonyl-3-pyridyl)-N,N-dipropyl-3H-1-benzazepine-4-carboxamide] | 0.017 | 5
CCCN(CCC)C(=O)C1=Cc2ccc(-c3cccc(S(=O)(=O)N4CCNCC4)c3)cc2N=C(N)C1 [Example 21, 2-Amino-8-(3-piperazin-1-ylsulfonylphenyl)-N,N-dipropyl-3H-1-benzazepine-4-carboxamide] | 0.018 | > 100
CCCN(CCC)C(=O)C1=Cc2ccc(-c3cncc(S(=O)(=O)N4CCC(N)C4)c3)cc2N=C(N)C1 (stereo not shown) [Example 22, 2-Amino-8-[5-(3-aminopyrrolidin-1-yl)sulfonyl-3-pyridyl]-N,N-dipropyl-3H-1-benzazepine-4-carboxamide] | 0.031 | 17
CCCN(CCC)C(=O)C1=Cc2ccc(-c3cc(C)cc(S(=O)(=O)N4CC[C@@H](O)C4)c3)cc2N=C(N)C1 [Example 23, 2-Amino-8-[3-[(3R)-3-hydroxypyrrolidin-1-yl]sulfonyl-5-methyl-phenyl]-N,N-dipropyl-3H-1-benzazepine-4-carboxamide] | 0.006 | 13
